Test results as given in patent publication US9738655B2, “Tetrahydroisoquinolines containing substituted azoles as factor XIa inhibitors” (BRISTOL-MYERS SQUIBB COMPANY, priority 2013, dated 2017).
Counter-ions that a name gives are not always drawn. Like-named read-outs stand apart in the source and are kept apart here.

What was measured:
[1] = target: purified human plasma kallikrein (Homo sapiens (Human), UniProt P03952); assay: Plasma kallikrein enzyme inhibition assay (chromogenic substrate S-2302); assay type: biochemical
Chain of purified human plasma kallikrein (P03952 391-638): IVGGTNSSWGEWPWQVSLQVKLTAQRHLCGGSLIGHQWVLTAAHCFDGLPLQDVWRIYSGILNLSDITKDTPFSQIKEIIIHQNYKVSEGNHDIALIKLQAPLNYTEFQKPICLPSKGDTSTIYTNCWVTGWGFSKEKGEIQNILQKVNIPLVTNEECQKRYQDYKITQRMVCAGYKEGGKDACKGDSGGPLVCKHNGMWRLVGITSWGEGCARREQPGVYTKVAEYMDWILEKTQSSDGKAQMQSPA
Chain of purified human plasma kallikrein (P03952 20-390 partner): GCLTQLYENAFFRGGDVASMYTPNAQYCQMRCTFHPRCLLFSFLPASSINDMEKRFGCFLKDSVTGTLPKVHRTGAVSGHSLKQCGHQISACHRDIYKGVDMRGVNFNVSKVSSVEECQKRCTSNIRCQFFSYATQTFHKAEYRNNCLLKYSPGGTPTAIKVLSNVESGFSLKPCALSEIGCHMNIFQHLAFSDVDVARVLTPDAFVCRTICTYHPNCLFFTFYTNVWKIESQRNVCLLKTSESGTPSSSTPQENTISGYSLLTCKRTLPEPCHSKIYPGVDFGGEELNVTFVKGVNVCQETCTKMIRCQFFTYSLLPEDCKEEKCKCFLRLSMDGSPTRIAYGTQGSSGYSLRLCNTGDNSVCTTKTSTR

[2] = target: purified human Factor XIa (Homo sapiens (Human), UniProt P03951); assay: Factor XIa enzyme inhibition assay (chromogenic substrate S-2366)
Chain of purified human Factor XIa (P03951 388-625): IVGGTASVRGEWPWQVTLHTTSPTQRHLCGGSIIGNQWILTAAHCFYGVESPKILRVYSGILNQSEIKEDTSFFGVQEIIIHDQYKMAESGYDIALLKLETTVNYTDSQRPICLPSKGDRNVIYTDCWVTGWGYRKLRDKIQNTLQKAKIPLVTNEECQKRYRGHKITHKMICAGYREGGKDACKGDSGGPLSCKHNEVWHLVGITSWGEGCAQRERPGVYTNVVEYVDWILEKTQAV
Chain of purified human Factor XIa (P03951 19-387 partner): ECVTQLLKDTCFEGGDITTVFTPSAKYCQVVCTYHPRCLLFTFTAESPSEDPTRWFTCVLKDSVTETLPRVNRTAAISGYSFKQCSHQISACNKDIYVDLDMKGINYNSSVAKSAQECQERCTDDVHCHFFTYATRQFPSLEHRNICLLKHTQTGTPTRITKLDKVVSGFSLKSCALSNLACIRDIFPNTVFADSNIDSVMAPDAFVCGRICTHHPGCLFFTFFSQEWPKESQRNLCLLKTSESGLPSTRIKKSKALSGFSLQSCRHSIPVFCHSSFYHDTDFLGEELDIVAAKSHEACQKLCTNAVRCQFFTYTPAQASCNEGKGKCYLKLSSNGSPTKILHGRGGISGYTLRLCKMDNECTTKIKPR

[3] = measured at 25° C. (no asterisk)
[4] = read-out: Factor XIa Ki, measured at 25° C.

Row | Ki [1, 3] | Ki [2, 4] | Ki [2] | Compound | also measured
1 | 0.00234 µM | 0.0199 µM | – | O=C(Nc1cccc2c1CCN(C(=O)c1cn(-c3cccc(Cl)c3F)nn1)C2C(=O)Nc1ccc(C(=O)O)cc1)NC1CCCC1 (stereo not drawn) [Example 193, 4-(2-(1-(3-Chloro-2-fluorophenyl)-1H-1,2,3-triazole-4-carbonyl)-5-(3-cyclopentylureido)-1,2,3,4-tetrahydroisoquinoline-1-carboxamido)benzoic acid] | –
2 | 0.00036 µM | – | < 0.005 µM | CN1CCN(c2cccc3c2CCN(C(=O)C2CC(c4cccc(Cl)c4)=NO2)C3C(=O)Nc2ccc(C(=O)O)cc2)CC1 (single isomer, unassigned) [Example 216, 4-(2-(3-(3-chlorophenyl)-4,5-dihydroisoxazole-5-carbonyl)-5-(4-methylpiperazin-1-yl)-1,2,3,4-tetrahydroisoquinoline-1-carboxamido)benzoic acid, 2 TFA salt] | –
3 | – | – | 0.0154 µM | COC1CCN(c2cccc3c2CCN(C(=O)[C@H]2CC(c4cccc(Cl)c4F)=NO2)[C@@H]3C(=O)Nc2cccc(F)c2)CC1 (single isomer, unassigned) [Example 237, TFA salt] | Ki ([1]; measured at 37° C. (*)): 0.13 µM
4 | 0.0104 µM | 0.03 µM | – | Cc1c2c(nn1C)CCN(C(=O)c1cn(-c3cccc(Cl)c3F)nn1)C2C(=O)Nc1ccc(C(=O)O)cc1 (stereo not drawn) [Example 222, 4-(5-(1-(3-Chloro-2-fluorophenyl)-1H-1,2,3-triazole-4-carbonyl)-2,3-dimethyl-4,5,6,7-tetrahydro-2H-pyrazolo[4,3-c]pyridine-4-carboxamido)benzoic acid] | –
5 | 0.0153 µM | < 0.005 µM | – | O=C1CCC2(CCN(c3cccc4c3CCN(C(=O)c3cn(-c5cccc(Cl)c5F)nn3)C4C(=O)Nc3ccc(C(=O)O)cc3)CC2)O1 (stereo not drawn) [Example 76, 4-(2-(1-(3-chloro-2-fluorophenyl)-1H-1,2,3-triazole-4-carbonyl)-5-(2-oxo-1-oxa-8-azaspiro[4.5]decan-8-yl)-1,2,3,4-tetrahydroisoquinoline-1-carboximido)benzoic acid, TFA] | –
6 | 0.0123 µM | 0.0134 µM | – | CC(=O)Nc1cccc2c1CCN(C(=O)c1cn(-c3cccc(Cl)c3F)nn1)C2C(=O)Nc1ccc(C(=O)O)cc1 (stereo not drawn) [Example 191, 4-(5-Acetamido-2-(1-(3-chloro-2-fluorophenyl)-1H-1,2,3-triazole-4-carbonyl)-1,2,3,4-tetrahydroisoquinoline-1-carboxamido)benzoic acid] | –
7 | 0.0162 µM | – | < 0.005 µM | Cn1ccc(-c2cccc3c2CCN(C(=O)c2cn(-c4cccc(Cl)c4F)nn2)C3C(=O)Nc2ccc(C(=O)O)cc2)n1 (stereo not drawn) [Example 43, 4-(2-(1-(3-chloro-2-fluorophenyl)-1H-1,2,3-triazole-4-carbonyl)-5-(1-methyl-1H-pyrazol-3-yl)-1,2,3,4-tetrahydroisoquinoline-1-carboxamido)benzoic acid] | –
8 | – | – | < 0.005 µM | COC1CCN(c2cccc3c2CCN(C(=O)[C@H]2CC(c4cccc(Cl)c4F)=NO2)[C@@H]3C(=O)Nc2ccc(C(=O)O)cc2F)CC1 (single isomer, unassigned) [Example 243, TFA salt] | Ki ([1]; measured at 37° C. (*)): 0.0376 µM
9 | – | < 0.005 µM | – | CN(C)C(=O)C1CCN(c2cccc3c2CCN(C(=O)C2CC(c4cccc(Cl)c4F)=NO2)C3C(=O)Nc2ccc(C(=O)O)cc2)CC1 (single isomer, unassigned) [Example 278, 4-(2-(3-(3-chloro-2-fluorophenyl)-4,5-dihydroisoxazole-5-carbonyl)-5-(4-(dimethylcarbamoyl)piperidin-1-yl)-1,2,3,4-tetrahydroisoquinoline-1-carboxamido)benzoic acid, TFA salt] | Ki ([1]; measured at 25° C. (no asterisk), TFA salt): 0.00198 µM
10 | 0.00717 µM | < 0.005 µM | – | CC1(O)CCN(c2cccc3c2CCN(C(=O)c2cn(-c4cccc(Cl)c4F)nn2)C3C(=O)Nc2ccc(C(=O)O)cc2)CC1 (stereo not drawn) [Example 67, 4-(2-(1-(3-chloro-2-fluorophenyl)-1H-1,2,3-triazole-4-carbonyl)-5-(4-hydroxy-4-methylpiperidin-1-yl)-1,2,3,4-tetrahydroisoquinoline-1-carboxamido)benzoic acid, TFA salt] | –
11 | – | 0.00769 µM | – | O=C(O)c1ccc(NC(=O)C2c3cccc(OC4COC4)c3CCN2C(=O)c2cn(-c3cccc(Cl)c3F)nn2)cc1 (stereo not drawn) [Example 123, 4-(2-(1-(3-Chloro-2-fluorophenyl)-1H-1,2,3-triazole-4-carbonyl)-5-(oxetan-3-yloxy)-1,2,3,4-tetrahydroisoquinoline-1-carboxamido)benzoic acid] | Ki ([1]; measured at 37° C. (*)): 0.0211 µM
12 | – | – | 1.43 µM | COC1CCN(c2cccc3c2CCN(C(=O)c2cc(-c4cccc(Cl)c4F)no2)C3C(=O)Nc2ccc(C(=O)O)cc2)CC1 (racemic) [Example 268, 4-(2-(3-(3-chloro-2-fluorophenyl)isoxazole-5-carbonyl)-5-(4-methoxypiperidin-1-yl)-1,2,3,4-tetrahydroisoquinoline-1-carboxamido)benzoic acid, TFA salt] | Ki ([1]; measured at 37° C. (*)): 0.178 µM
13 | 0.0488 µM | < 0.005 µM | – | CC(CO)(CO)COC(C)(C)C1CCN(c2cccc3c2CCN(C(=O)c2cnn(-c4cccc(Cl)c4F)c2)C3C(=O)Nc2ccc(C(=O)O)cc2)CC1 (stereo not drawn) [Example 225, 4-(2-(1-(3-Chloro-2-fluorophenyl)-1H-pyrazole-4-carbonyl)-5-(4-(2-(3-hydroxy-2-(hydroxymethyl)-2-methylpropoxy)propan-2-yl)piperidin-1-yl)-1,2,3,4-tetrahydroisoquinoline-1-carboxamido)benzoic acid, TFA salt] | –
14 | 0.0111 µM | – | < 0.005 µM | COC1CCN(c2cccc3c2CCN(C(=O)c2cn(-c4cccc(Cl)c4F)nc2O)C3C(=O)Nc2ccc(C(=O)O)cc2)CC1 (racemic) [Example 264, 4-(2-(1-(3-chloro-2-fluorophenyl)-3-hydroxy-1H-pyrazole-4-carbonyl)-5-(4-methoxypiperidin-1-yl)-1,2,3,4-tetrahydroisoquinoline-1-carboxamido)benzoic acid, TFA salt] | –
15 | – | < 0.005 µM | – | CNC(=O)c1ccc(-c2cccc3c2CCN(C(=O)c2cn(-c4cccc(Cl)c4F)nn2)[C@@H]3C(=O)Nc2ccc(C(=O)OC)cc2)cn1 [Example 27, (S)-Methyl 4-(2-(1-(3-chloro-2-fluorophenyl)-1H-1,2,3-triazole-4-carbonyl)-5-(6-(methylcarbamoyl)pyridin-3-yl)-1,2,3,4-tetrahydroisoquinoline-1-carboxamido)benzoate, TFA salt] | Ki ([1]; measured at 37° C. (*)): 0.0468 µM
16 | 0.0052 µM | 0.00669 µM | – | Cc1nc(-c2ccc(NC(=O)C3c4cccc(N5CCC(N(C)C)CC5)c4CCN3C(=O)c3cn(-c4cccc(Cl)c4F)nn3)cc2)no1 (stereo not drawn) [Example 98, 2-(1-(3-Chloro-2-fluorophenyl)-1H-1,2,3-triazole-4-carbonyl)-5-(4-(dimethylamino)piperidin-1-yl)-N-(4-(5-methyl-1,2,4-oxadiazol-3-yl)phenyl)-1,2,3,4-tetrahydroisoquinoline-1-carboxamide, bis-TFA salt] | –
17 | – | – | 0.635 µM | COC1CCN(c2cccc3c2CCN(C(=O)[C@H]2CC(c4cccc(Cl)c4F)=NO2)[C@H]3C(=O)Nc2cccc(F)c2)CC1 (single isomer, unassigned) [Example 238, TFA salt] | Ki ([1]; measured at 37° C. (*)): > 4.34 µM
18 | 0.00324 µM | < 0.005 µM | – | CN(C)C(=O)C1CCN(c2cccc3c2CCN(C(=O)c2cn(-c4cccc(Cl)c4F)nn2)[C@@H]3C(=O)Nc2ccc(C(=O)O)cc2)CC1 (single isomer, unassigned) [Example 58, TFA salt] | –
19 | – | 3.55 µM | – | COC(=O)c1ccc(NC(=O)[C@H]2c3cccc(-c4cncnc4)c3CCN2C(=O)c2cn(-c3cccc(Cl)c3F)nn2)cc1 [Example 25, (R)-Methyl 4-(2-(1-(3-chloro-2-fluorophenyl)-1H-1,2,3-triazole-4-carbonyl)-5-(pyrimidin-5-yl)-1,2,3,4-tetrahydroisoquinoline-1-carboxamido)benzoate] | Ki ([1]; measured at 37° C. (*)): > 4.34 µM
20 | 0.276 µM | 0.0331 µM | – | CN(C)C(=O)C1CCN(c2cccc3c2CCN(C(=O)c2cn(-c4cccc(Cl)c4F)nn2)[C@H]3C(=O)Nc2ccc(C(=O)O)cc2)CC1 (single isomer, unassigned) [Example 57, TFA salt] | –
21 | 0.0158 µM | < 0.005 µM | – | CO[C@@H]1CCN(c2cccc3c2CCN(C(=O)c2cn(-c4cccc(Cl)c4F)nn2)C3C(=O)Nc2ccc(C(=O)O)cc2)C1 (mixture of isomers) [Example 84, 4-(2-(1-(3-chloro-2-fluorophenyl)-1H-1,2,3-triazole-4-carbonyl)-5-((R)-3-methoxypyrrolidin-1-yl)-1,2,3,4-tetrahydroisoquinoline-1-carboxamido)benzoic acid, TFA salt] | –
22 | 0.00765 µM | < 0.005 µM | – | COC1CCN(c2cccc3c2CCN(C(=O)c2cn(-c4cccc(Cl)c4F)cn2)[C@@H]3C(=O)Nc2ccc(C(=O)O)cc2)CC1 [Example 273, (S)-4-(2-(1-(3-chloro-2-fluorophenyl)-1H-imidazole-4-carbonyl)-5-(4-methoxypiperidin-1-yl)-1,2,3,4-tetrahydroisoquinoline-1-carboxamide)benzoic acid, TFA salt] | –
23 | 0.0267 µM | – | < 0.005 µM | COC1CCN(c2cccc3c2CCN(C(=O)c2cn(-c4c(F)ccc(Cl)c4F)nn2)C3C(=O)Nc2ccc(C(=O)O)cc2)CC1 (racemic) [Example 254, 4-(2-(1-(3-chloro-2,6-difluorophenyl)-1H-1,2,3-triazole-4-carbonyl)-5-(4-methoxypiperidin-1-yl)-1,2,3,4-tetrahydroisoquinoline-1-carboxamido)benzoic acid, TFA salt] | –

Row | Compound | Ki [1, 3] | Ki [2, 4] | Ki [2] | also measured
24 | 4-(2-(5-amino-1-(3-chloro- 2-fluorophenyl)-1H- pyrazole-4-carbonyl)-5-(4- (pyrrolidin-1- yl)piperidin-1-yl)-1,2,3,4- tetrahydroisoquinoline-1- carboxamido)benzoic acid, 3TFA salt [Example 213] | 0.0122 µM | – | – | Ki ([2]; read-out: Factor XIa Ki): < 0.005 µM
